Reference: ChEMBL document CHEMBL1141688, “Design, synthesis and preliminary biological evaluation of new hydroxamate histone deacetylase inhibitors as potential antileukemic agents” (Bioorg Med Chem Lett, 2008)

Key:
NB-4 [1] = experiment: Antiproliferative activity against human NB4 cells after 48 hrs; format: functional, cell-based; conditions: NB-4, 48 h
NB-4 [2] = experiment: Induction of apoptosis in human NB4 cells assessed as necrotic cells at 2.5 uM after 48 hrs using annexin V-fluos/propidium iodide staining by cytofluorimetric analysis; format: functional
NB-4 [3] = experiment: Induction of apoptosis in human NB4 cells assessed as early apoptotic cells at 2.5 uM after 48 hrs using annexin V-fluos/propidium iodide staining by cytofluorimetric analysis; format: functional
NB-4 [4] = experiment: Induction of apoptosis in human NB4 cells assessed as late apoptotic cells at 2.5 uM after 48 hrs using annexin V-fluos/propidium iodide staining by cytofluorimetric analysis; format: functional
NB-4 [5] = experiment: Induction of apoptosis in human NB4 cells assessed as viable cells at 2.5 uM after 48 hrs using annexin V-fluos/propidium iodide staining by cytofluorimetric analysis; format: functional; conditions: NB-4, 48 h, read-out: Activity
NB-4 [6] = experiment: Induction of apoptosis in human NB4 cells assessed as necrotic cells at 5 uM after 48 hrs using annexin V-fluos/propidium iodide staining by cytofluorimetric analysis; format: functional
NB-4 [7] = experiment: Induction of apoptosis in human NB4 cells assessed as early apoptotic cells at 5 uM after 48 hrs using annexin V-fluos/propidium iodide staining by cytofluorimetric analysis; format: functional
NB-4 [8] = experiment: Induction of apoptosis in human NB4 cells assessed as late apoptotic cells at 5 uM after 48 hrs using annexin V-fluos/propidium iodide staining by cytofluorimetric analysis; format: functional
NB-4 [9] = experiment: Induction of apoptosis in human NB4 cells assessed as viable cells at 5 uM after 48 hrs using annexin V-fluos/propidium iodide staining by cytofluorimetric analysis; format: functional; conditions: NB-4, 48 h, read-out: Activity

Compound C[C@H]1N=C(c2ccccc2)c2cc(C#CCCCC(=O)NO)ccc2N(C)C1=O has an IC50 (NB-4 [1]) of 4.8 µM, an Activity (NB-4 [2]) of 0.4% and an Activity (NB-4 [3]) of 1.5%. For the same compound, the Activity (NB-4 [4]) was 8.3% and the viability at 2.5 µM (NB-4 [5]) was 89.8%.

CN1C(=O)CN=C(c2ccccc2)c2cc(C#CCCCC(=O)NO)ccc21 was tested, and the IC50 (NB-4 [1]) was 0.62 µM.

Compound C[C@@H]1N=C(c2ccccc2)c2cc(NC(=O)CCCCCCC(=O)NO)ccc2N(C)C1=O has an IC50 (NB-4 [1]) of 5.83 µM.

C[C@H]1N=C(c2ccccc2)c2cc(NC(=O)CCCCCCC(=O)NO)ccc2N(C)C1=O was tested, and the IC50 (NB-4 [1]) was 3.71 µM.

Compound CN1C(=O)CN=C(c2ccccc2)c2cc(NC(=O)CCCCCCC(=O)NO)ccc21 has an IC50 (NB-4 [1]) of 2.5 µM.

In the case of C[C@@H]1N=C(c2ccccc2)c2cc(C#CCCCC(=O)NO)ccc2N(C)C1=O, the IC50 (NB-4 [1]) is reported as 0.61 µM, the Activity (NB-4 [2]) is reported as 0.6% and the Activity (NB-4 [3]) is reported as 30.8%. The Activity (NB-4 [4]) was 56.6% and the viability at 2.5 µM (NB-4 [5]) was 12%.

With CC1N=C(c2ccccc2)c2cc(NC(=O)CCCCCCC(=O)NO)ccc2N(C)C1=O (racemic) the IC50 (NB-4 [1]) was 4.09 µM.

CC1N=C(c2ccccc2)c2cc(C#CCCCC(=O)NO)ccc2N(C)C1=O (racemic) was tested, and the IC50 (NB-4 [1]) was 1.26 µM, the Activity (NB-4 [6]) was 1.7% and the Activity (NB-4 [7]) was 35.6%. It also gave an Activity (NB-4 [8]) of 54.1% and a viability at 5 µM (NB-4 [9]) of 8.6%.
